From patent US10081602B2, “Opioid agonists and uses thereof” (Nektar Therapeutics, priority 2013, dated 2018)

Key:
[1] = target: human mu (MOR) opioid receptor (Homo sapiens (Human), UniProt P35372); test: Radioligand competition binding assay, mu opioid receptor; details: [3H]Naloxone; for inhibition at 10 µM: read-out: Mu receptor % inhibition at single concentration
Description: The binding affinities of certain compounds of the present invention were evaluated using radioligand binding assays in membranes prepared from CHO-K1 cells expressing recombinant human kappa (KOR) or mu (MOR) opioid receptors.
Competition binding experiments were conducted by incubating membrane protein to equilibrium in triplicate in the presence of a fixed concentration of radioligand and increasing concentrations of test compound for evaluation of binding to KOR or single concentration (10 μM) of test compound for evaluation of binding to MOR in 101 μL final volume. The radioligands used were specific for each receptor type, and the assay conditions are described in Table 1. Following incubations, the membranes were rapidly filtered through GF/B filter plate (presoaked with 0.5% polyethyleneimine), washed five times with cold 50 mM Tris-HCl, pH 7.5, and the bound radioactivity was then measured by liquid scintillation counting. Non-specific binding was measured in the presence of excess ligand; this value was subtracted from the total binding to yield the specific binding at each test concentration.
Ki (affinity of test compound) was obtained using the Cheng Prusoff correction using experimental Kd (affinity of radioligand) values that were previously determined under these assay conditions. For MOR binding, compounds were tested at one concentration, 10 μM, to evaluate its ability to inhibit specific radioligand binding. The values are expressed as percent inhibition of specific binding and greater than 50% inhibition of binding was considered to be significant.
With respect to determining MOR binding, an approach similar to one used for KOR binding was used.

[2] = system: acetic acid-induced writhing (visceral pain) in mice; test: Acetic acid writhing (AAW) analgesic assay; assay type: in vivo
Description: An analgesic assay was used to determine whether a given compound can reduce and/or prevent visceral pain in mice. The assay utilizes Swiss Albino or CD-1 male mice (5-10 mice per group), each mouse being approximately 0.015-0.030 kg on the study day. Mice were treated according to standard protocols.
The animal was given an intraperitoneal (IP) injection of an irritant (acetic acid) that induces “writhing” which may include: contractions of the abdomen, twisting and turning of the trunk, arching of the back and the extension of the hindlimbs. Mice are given a single IP injection (0.1 mL/10 g bodyweight) of a 0.5% acetic acid solution. After the injection the animals were returned to their observation enclosure and their behavior was observed. Contractions were counted between 0 and 20 minutes after the injection. The animals were used once. In certain instances, the test articles were administered at multiple doses to determine a dose response curve.
Table 4 provides the results for certain compounds of the present invention that were administered subcutaneously. Table 5 provides the results for certain compounds of the present invention that were administered orally.

[3] = target: MOR (Homo sapiens (Human), UniProt P35372); test: cAMP accumulation assay in forskolin-stimulated CHO-K1 cells stably expressing MOR; assay type: cell-based
Description: Inhibition of cAMP accumulation by select compounds was measured in forskolin-stimulated CHO-K1 cells stably expressing KOR. CHO-K1 cells stably expressing KOR were harvested using Invitrogen Cell Dissociation Buffer, and then centrifuged at 1200 rpm for five minutes. The supernatant was aspirated and cells were resuspended in assay buffer to a density of 4×10^5 cells/mL. 25 μL of cells were added into a white half-area 96 well plate. Fourteen point serial dilutions of test compounds were carried out in assay buffer (PBS with 0.5 mM IBMX). Ketazocine was used as a positive control for each assay. 12.5 μL of compound was added to the cells in duplicate for each test concentration. The cells were then stimulated with 12.5 μL forskolin at a final concentration 20 μM. Cells were incubated for 45 minutes in a 37° C., 5% CO2 water jacketed incubator. CisBio HTRF cAMP assay reagent was used for cAMP quantitation. Two hours after substrate addition, signal at 665/615 nm was measured using the Perkin Elmer Victor X4 HTRF reader. Data analysis was done using GraphPad Prism, sigmoidal dose-response (variable slope) curve fitting.
Using a similar approach, inhibition of cAMP accumulation by select compounds was also determined in forskolin-simulated CHO-K1 cells stably expressing MOR (wherein for this assay a density of 8×10^5 cells/mL was used and the positive control was DAMGO). […]

COCCOCCOCCOCCOCCNc1ccc2c(c1)[C@]1(C)CCN(CC3CC3)[C@H](C2=O)[C@@H]1C [Example 2, (2S,6R,11R)-3-(Cyclopropylmethyl)-6,11-dimethyl-8-(2,5,8,11,14-pentaoxahexadecan-16-ylamino)-3,4,5,6-tetrahydro-2,6-methano-3-benzazocin-1(2H)-One]
inhibition at 10 µM [1]: 85.5%

COCCOCCOCCOCCOCCOCCOCCNc1ccc2c(c1)[C@]1(C)CCN(CC3CC3)[C@H](C2=O)[C@@H]1C [Example 3, (2S,6R,11R)-3-(Cyclopropylmethyl)-8-(2,5,8,11,14,17,20-heptaoxadocosan-22-ylamino)-6,11-dimethyl-3,4,5,6-tetrahydro-2,6-methano-3-benzazocin-1 (2H)-One]
inhibition at 10 µM [1]: 80.6%

COCCOCCOCCOc1ccc2c(c1)[C@]1(C)CCN(CC3CC3)[C@H](C2=O)[C@@H]1C [Example 4, (2S,6R,11R)-3-(Cyclopropylmethyl)-8-{2-[2-(2-methoxyethoxy)ethoxy]ethoxy}-6,11-dimethyl-3,4,5,6-tetrahydro-2,6-methano-3-benzazocin-1(2H)-One]
inhibition at 10 µM [1]: 89.2% | AAW % Efficacy ([2]; oral, 200 mg/kg): 3.8% | AAW % Efficacy ([2]; subcutaneous, 3 mg/kg): 0.0% | AAW % Efficacy ([2]; subcutaneous, 10 mg/kg): 39.7% | AAW % Efficacy ([2]; subcutaneous, 30 mg/kg): 100.0%

COCCOCCOCCOCCOCCOCCOCCOc1ccc2c(c1)[C@]1(C)CCN(CC3CC3)[C@H](C2=O)[C@@H]1C [Example 6, (2S,6R,11R)-3-(Cyclopropylmethyl)-8-(2,5,8,11,14,17,20-heptaoxadocosan-22-yloxy)-6,11-dimethyl-3,4,5,6-tetrahydro-2,6-methano-3-benzazocin-1(2H)-One]
inhibition at 10 µM [1]: 48.6%

COCCOCCOCCOCCOCCO[C@@H]1c2ccc(O)cc2[C@]2(C)CCN(CC3CC3)[C@H]1[C@@H]2C [Example 25, (1R,2S,6R,11R)-1-(2,5,8,11,14-pentaoxahexadecan-16-yloxy)-3-(cyclopropylmethyl)-6,11-dimethyl-1,2,3,4,5,6-hexahydro-2,6-methanobenzo[d]azocin-8-ol]
EC50 [3]: 1.21 µM | Ki ([1]; CHO-K1 membranes): 3.92 µM

C[C@H]1[C@H]2C(=O)c3ccc(O)cc3[C@]1(C)CCN2CC1CC1 [Ketazocine, (2S,6R,11R)-3-(cyclopropylmethyl)-8-hydroxy-6,11-dimethyl-3,4,5,6-tetrahydro-2,6-methanobenzo[d]azocin-1(2H)-one, reference compound]
inhibition at 10 µM [1]: 99.2% | AAW % Efficacy ([2]; oral, 0.1 mg/kg): 12.8% | AAW % Efficacy ([2]; oral, 1 mg/kg): 34.5% | AAW % Efficacy ([2]; oral, 10 mg/kg): 58.9% | AAW % Efficacy ([2]; oral, 100 mg/kg): 100.0% | AAW % Efficacy ([2]; subcutaneous, 0.01 mg/kg): 10.57% | AAW % Efficacy ([2]; subcutaneous, 0.1 mg/kg): 50.03% | AAW % Efficacy ([2]; subcutaneous, 1 mg/kg): 100.00%
